# Assay results from patent USRE39616E1, “Aminoindan derivatives” (priority 1996, dated 2007).
# pIC50: −log10 of the molar value. Structures can show the parent of a compound that is named as a salt. Where two headings read alike, the source gives them in different places. Marks after values point to notes of the source that are not given here.
# How the values were obtained:
# MAO-B = molecular target: T1, MAO-B (Rattus norvegicus, UniProt P19643); test: Inhibition of MAO activity in vitro, PEA as substrate; format: biochemical; design: The MAO enzyme source was a homogenate of rat brain in 0.3M sucrose; from tissue; host or cells: rat brain homogenate, 600 g supernatant; settings: MAO-B Inhibition In vitro IC50, rat brain homogenate
# T1 sequence (P19643 1-520): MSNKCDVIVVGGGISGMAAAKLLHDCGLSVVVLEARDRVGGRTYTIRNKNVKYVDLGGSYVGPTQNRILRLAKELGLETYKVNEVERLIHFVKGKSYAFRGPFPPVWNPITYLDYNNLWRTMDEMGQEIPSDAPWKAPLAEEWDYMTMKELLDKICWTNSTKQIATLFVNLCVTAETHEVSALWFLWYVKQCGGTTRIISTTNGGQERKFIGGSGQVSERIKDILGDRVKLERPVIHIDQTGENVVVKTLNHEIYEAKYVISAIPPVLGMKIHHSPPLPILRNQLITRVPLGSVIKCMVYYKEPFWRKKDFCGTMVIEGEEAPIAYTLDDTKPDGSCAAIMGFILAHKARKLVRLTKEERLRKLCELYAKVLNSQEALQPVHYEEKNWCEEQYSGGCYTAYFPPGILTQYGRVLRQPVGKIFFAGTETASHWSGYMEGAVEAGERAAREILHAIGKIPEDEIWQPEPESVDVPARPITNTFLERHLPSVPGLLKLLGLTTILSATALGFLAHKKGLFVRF
# Protocol: (§1) Substrate concentrations used were 50 μM (PEA) and 1 mM (5-HT).
# whole brain AChE = molecular target: T2, whole brain AChE (Mus musculus, UniProt P21836); settings: for AChE Inhibition Ex vivo ED50 (AC): mice, whole brain, at peak of activity; for AChE Inhibition Time to peak activity t / AChE Inhibition Time to return to 50% of peak t: mouse, in vivo
# T2 sequence (P21836 32-614): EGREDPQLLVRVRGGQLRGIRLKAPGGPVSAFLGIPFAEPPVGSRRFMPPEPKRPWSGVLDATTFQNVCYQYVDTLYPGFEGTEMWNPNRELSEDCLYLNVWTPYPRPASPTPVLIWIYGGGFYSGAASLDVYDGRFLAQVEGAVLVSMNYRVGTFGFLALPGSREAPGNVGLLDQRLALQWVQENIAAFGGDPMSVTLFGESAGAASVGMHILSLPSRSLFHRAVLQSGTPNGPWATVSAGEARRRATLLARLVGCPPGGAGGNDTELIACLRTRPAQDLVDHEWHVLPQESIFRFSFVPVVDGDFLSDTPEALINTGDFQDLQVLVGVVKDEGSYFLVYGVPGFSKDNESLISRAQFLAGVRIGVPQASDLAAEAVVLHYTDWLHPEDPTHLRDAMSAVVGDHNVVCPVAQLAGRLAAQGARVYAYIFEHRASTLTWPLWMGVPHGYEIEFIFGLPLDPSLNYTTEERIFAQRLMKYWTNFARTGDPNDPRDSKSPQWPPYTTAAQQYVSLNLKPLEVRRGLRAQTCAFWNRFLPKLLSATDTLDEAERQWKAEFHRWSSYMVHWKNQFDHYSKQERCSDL
# Protocol: Test drugs or saline were administered sub-cutaneously to male mice (Sabra strain, 28-35 g). […] The mice were sacrificed 15, 30, 50, 70, 90, 120 or 180 minutes after drug administration, the brains rapidly removed (minus cerebellum), weighed and homogenized in 0.1 M phosphate buffer, pH 8.0, containing Triton (1 mg/100 g tissue) and centrifuged to remove cell debris. Aliquots (25 μl) of the supernatant were then incubated with acetylthiocholine and DTNB. AChE activity was measured as described above. The % inhibition of whole brain AChE by each dose of drug was calculated by comparison with enzyme activity from 3 saline treated control mice run at the same time.
# [1] = system: Closed Head Injury (CHI) in Mice; test: Closed Head Injury (CHI) in mice: motor function, neurological severity score (NSS); format: in vivo; settings: difference from NSS at 1 hr
# MAO-A = molecular target: T3, MAO-A (Rattus norvegicus, UniProt P21396); test: in vivo; format: in vivo, rats; design: animals were sacrificed and MAO levels determined in the brain, liver and intestines; from tissue; host or cells: rat brain, liver and intestine; settings: for % MAO-A inhibition: HCl
# T3 sequence (P21396 1-526): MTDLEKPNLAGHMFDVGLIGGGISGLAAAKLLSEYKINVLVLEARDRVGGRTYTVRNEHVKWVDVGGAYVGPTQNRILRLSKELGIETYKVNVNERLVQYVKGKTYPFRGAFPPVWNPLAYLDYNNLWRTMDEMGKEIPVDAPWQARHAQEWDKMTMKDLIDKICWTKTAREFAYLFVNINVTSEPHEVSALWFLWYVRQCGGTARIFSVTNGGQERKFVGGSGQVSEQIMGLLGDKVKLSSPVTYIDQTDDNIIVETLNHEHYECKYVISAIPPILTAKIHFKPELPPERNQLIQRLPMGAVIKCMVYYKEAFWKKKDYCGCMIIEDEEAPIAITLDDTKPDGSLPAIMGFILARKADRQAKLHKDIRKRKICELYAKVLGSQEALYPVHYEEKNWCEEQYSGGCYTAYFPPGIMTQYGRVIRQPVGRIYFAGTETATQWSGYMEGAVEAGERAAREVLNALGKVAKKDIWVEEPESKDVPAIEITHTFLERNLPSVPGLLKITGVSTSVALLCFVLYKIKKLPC
# Protocol: as §1
# Male Sabra mice, weighing 45-50 g were injected with test compound solutions (prepared in 0.9% saline). Each dose was administered to two or three mice. The mice were sacrificed two hours after drug administration or at a time corresponding to the peak AChE inhibition time (see Table 11). The brain and liver were rapidly dissected and stored in appropriate vials on ice. The tissues were weighed, diluted to ½ in sucrose 0.3M and stored at −20° C. before performance of the MAO assay described above. The results given in Table 11 relate to measurements made on brain tissue only.
# Experiments were done in Sprague Dawley male rats. […] At the end of this period animals were sacrificed and MAO levels determined in the brain, liver and intestines.
# [2] = system: Middle Cerebral Artery Occlusion (MCA-O) in Male Wistar Rats; settings: rat, in vivo
# [3] = molecular target: T4, Human erythrocyte acetylcholinesterase (Homo sapiens, UniProt P22303); test: biochemical; format: biochemical; settings: AChE Inhibition In vitro IC50
# T4 construct: Human erythrocyte acetylcholinesterase (type XIII, Sigma Israel); purchased Sigma Israel type XIII; host or cells: human erythrocytes
# T4 sequence (P22303 32-617 isoform P22303-2 limits assumed): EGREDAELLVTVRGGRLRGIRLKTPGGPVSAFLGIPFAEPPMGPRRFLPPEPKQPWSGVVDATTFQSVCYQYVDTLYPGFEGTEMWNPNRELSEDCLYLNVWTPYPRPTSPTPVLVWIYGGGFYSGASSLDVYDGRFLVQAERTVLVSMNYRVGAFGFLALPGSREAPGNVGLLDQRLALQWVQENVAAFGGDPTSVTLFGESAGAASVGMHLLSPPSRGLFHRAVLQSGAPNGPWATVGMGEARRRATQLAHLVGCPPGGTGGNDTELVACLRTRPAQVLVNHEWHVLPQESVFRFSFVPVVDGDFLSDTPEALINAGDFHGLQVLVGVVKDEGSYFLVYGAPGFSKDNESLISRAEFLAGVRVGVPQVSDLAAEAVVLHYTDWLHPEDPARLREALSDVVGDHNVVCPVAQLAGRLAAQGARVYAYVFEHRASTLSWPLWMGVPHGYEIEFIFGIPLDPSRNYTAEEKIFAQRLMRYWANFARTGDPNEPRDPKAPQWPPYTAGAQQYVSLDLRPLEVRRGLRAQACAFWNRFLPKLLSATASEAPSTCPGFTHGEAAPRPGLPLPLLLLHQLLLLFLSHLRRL
# Summary of the method: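 Erythrocyte AChE (type XIII) from 1 U/ml stock containing 1% Triton and 0.05% BSA in phosphate buffer pH 8; 0.05 U enzyme preincubated with 3-5 compound concentrations, triplicate, 15 to 60 minutes at 37° C. Percent inhibition calculated against drug-free enzyme.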
# [4] = system: Closed Head Injury (CHI) in Mice; test: Morris Water Maze Test after closed head injury (reference memory); settings: retested daily for 2 weeks
# Protocol: Morris Water Maze Test: the water maze consists of a circular aluminium pool, im in diameter and 60 cm in depth, filled with water to a depth of 17.5 cm. The hidden goal platform is a glass vessel (15 cm diameter×16.5 cm height) placed upside down at a fixed location in the pool, 1 cm below the surface of the water. The water temperature is maintained at 24° C. and the pool is always placed in the same position in the room to provide the same extra-maze cues. […] Commencing 24 hr after CHI, mice were retested daily for 2 weeks in 3 trials per day.
# [5] = 6.5 mg/kg sc once 15 min after CHI
# [6] = 46 mg/kg administered 60 min before CHl
# [7] = 46 mg/kg sc once 15 min after CHI
# [8] = 15 mg/kg sc once 15 min after CHI
SMILES,pIC50 (MAO-B),AChE Inhibition Ex vivo ED50 (AC) (whole brain AChE) [µmol/kg],AChE Inhibition Time to peak activity t (whole brain AChE) [min],AChE Inhibition Time to return to 50% of peak t (whole brain AChE) [min],Volume infarction Mean ± SD [2] [mm*],pIC50 [3],also measured
CN(C)C(=O)Oc1ccc2c(c1)C(N)CC2 (centres unmarked) [Compound 1],< 3.00,5.0,30,>120,–,–,–
"C#CCNC1CCc2ccc(OC(=O)N(C)C)cc21 (centres unmarked) [Compound 24, 6-(N,N-Dimethylcarbamyloxy)-N-propargyl aminoindan mesylate]",3.12,–,–,–,152 ± 45,–,"ΔNSS, 24 hr post-CHl [1, 5]: 6.31 ± 0.23^m; ΔNSS, 7 days post-CHl [1, 5]: 8.67 ± 0.41^m; ΔNSS, 14 days post-CHl [1, 5]: 9.67 ± 0.66^m; inhibition at 10 mg/kg (MAO-A; po, read-out: % MAO-A inhibition, Brain, po, 10 mg/kg daily for 14 days, rats): 0%; inhibition at 10 mg/kg (MAO-A; po, read-out: % MAO-A inhibition, Intestine, po, 10 mg/kg daily for 14 days, rats): 30%; inhibition at 10 mg/kg (MAO-A; po, read-out: % MAO-A inhibition, Liver, po, 10 mg/kg daily for 14 days, rats): 10%; inhibition at 6 mg/kg (MAO-A; sc, read-out: % MAO-A inhibition, Brain, sc, 6 mg/kg daily for 14 days, rats): 30%; inhibition at 6 mg/kg (MAO-A; sc, read-out: % MAO-A inhibition, Intestine, sc, 6 mg/kg daily for 14 days, rats): 0%; inhibition at 6 mg/kg (MAO-A; sc, read-out: % MAO-A inhibition, Liver, sc, 6 mg/kg daily for 14 days, rats): 0%"
C#CCNC1CCc2cccc(OC(=O)N(C)C)c21 (centres unmarked) [Compound 27],< 3.00,30,15,>60,–,5.24,–
C#CCN(C)C1CCc2ccc(OC(=O)N(C)C)cc21 (centres unmarked) [Compound 29],4.40,53.7,15,>60,–,5.07,–
"C#CCNC1CCc2ccc(OC(=O)N(C)CC)cc21 (centres unmarked) [Compound 25, 6-(N-Me, N-Etcarbamyloxy) N-propargyl aminoindan, HCl]",–,140.0,60,>180,189 ± 54,4.28,"ΔNSS, 24 hr post-CHl [1, 6]: 4.90 ± 0.43; ΔNSS, 7 days post-CHl [1, 6]: 7.70 ± 0.33^m; ΔNSS, 14 days post-CHl [1, 6]: 8.80 ± 0.33^m; ΔNSS, 24 hr post-CHl [1, 7]: 5.00 ± 0.42; ΔNSS, 7 days post-CHl [1, 7]: 7.42 ± 0.62^m; ΔNSS, 14 days post-CHl [1, 7]: 9.01 ± 0.69^m; selectivity of MAO inhibition, brain versus periphery (liver, intestines) (MAO-A; in vivo): selectivity in inhibiting MAO enzyme sub-types in the brain in preference to the periphery; % MAO-A inhibition (MAO-A; in vivo, po, 50 mg/kg): 25%; % MAO-A inhibition (MAO-A; in vivo, sc, 25 mg/kg): 0%; reduction in latency to find the platform, Morris Water Maze, compared to saline treated controls ([4]; 46 mg/kg, FIG. 2): Memory is enhanced"
CCN(C)C(=O)Oc1ccc2c(c1)C(NC)CC2 (centres unmarked) [Compound 10],–,34.7,60 to 90,>180,–,–,"ΔNSS, 24 hr post-CHl [1, 8]: 5.36 ± 0.39; ΔNSS, 7 days post-CHl [1, 8]: 6.64 ± 0.41^m; ΔNSS, 14 days post-CHl [1, 8]: 6.73 ± 0.52; reduction in latency to find the platform, Morris Water Maze, compared to saline treated controls ([4]; 15 mg/kg, FIG. 1): Memory is enhanced"
